For assay [1], the target named is T1, human STING (Homo sapiens, UniProt Q86WV6).
T1 construct: made in house; host or cells: E. coli
Put plainly: Thermal shift assay. The format is binding. The following applies: human STING protein 5 uM; ligand bound vs apo. An excerpt: We sought to develop small molecule compounds with increased STING agonist activity against human STING. GSK reported a series of non-CDN small molecules, represented by compound 1[13], with good human STING agonistic activity. Based on our molecular modeling analysis, along with the reported CDN-STING crystal structures, we designed a novel series of fused tricyclic heterocycle compounds and analyzed their binding to human STING with thermal shift assays and the potency in activation of STING signaling with a reporter cellular assay (Supplementary Table S1). Thermal shift assays measure the difference between apo STING and ligand bound STING in the inflection point at which 50% of protein is thermally unfolded (ΔTm). […] The ability of compounds to activate the IRF reporter gene in the THP1 cells was also evaluated.
The melting temperature (Tm) of human STING was determined by calculating the temperature at the inflection point of the thermal melt curve generated on a Roche LightCycler 480 using 384 plate format and 465–590 nm filter set. […] Florescence was measured while ramping the plate temperature from 20 to 95 °C and the resulting data was processed using ROCHE data analysis software. Delta Tms were calculated by subtracting the Tm of untreated protein from ligand treated samples. […]

Assay [2] deals with THP1 reporter cells carrying human STING R232, H232 and HAQ variants. Put plainly: IRF luciferase reporter assay in THP1 cells with STING variants. Format: cell-based. The settings on record: compared to cGAMP and ADU-S100; 24 h. An excerpt:
Five haplotypes of human STING have been identified (R232, H232, HAQ, AQ, and Q alleles), which vary at amino acid positions 71, 230, 232, and 293[16]. R232, HAQ and H232 were reported to be the three major alleles. We tested the responsiveness of the human STING alleles to STING agonists in THP1 reporter cells carrying human STING R232, H232 and HAQ variants. […] To examine whether the activities of STING agonists are on-target, we treated THP1-STING-KO reporter cells with the agonists and no luciferase reporter activity was detected, confirming the cellular activity of STING agonists we observed are specific from STING.
Figure 2 SHR1032 specifically and potently activates STING signaling pathway. […] Cells were stimulated for 24 h with the indicated STING compounds and assessed for luciferase activity. […] IFNβ in media was quantified by human or mouse ELISA kits respectively. […] The amount of pTBK1, total TBK1, STING and α-tubulin was measured by western blotting.
THP1 reporter cells were treated for 24 h with a total of 100 k cells and 150 ul media in each well a 96-well plate. […] Luminescence signal was measured using Tecan infinite M1000. EC50 values were calculated using non-linear regression analysis of GraphPad Prism. Cell growth was monitored by CellTiter-Glo Luminescent Cell Viability Assay (Promega) per manufacture’s protocol. […]
For orientation: In a reporter assay the amount or activity of a reporter protein is the signal.

For assay [3], the system named is MV4-11 cells. Put plainly: RNA-seq differentially expressed genes. Format: cell-based, human. The following applies: MV4-11, 1 µM, 4 h. As to the method:
(§1) Figure 5 Cell apoptosis induced by SHR1032 in AML cell lines is independent of type I interferon. (a–d) RNA-Seq analysis of THP1-STING-R232, THP1-STING-KO and MV4-11 AML cells treated with 1 µM of SHR1032 for 4 h. […] (d) ANNEXIN V staining analysis with flow cytometry in MV4-11, MOLM-16, THP1-STING-WT and THP1-STING-KO cells. (e) Cell viability analysis by CellTiter Glo in THP1-IRFAR2-WT or -KO cells.
(§2) RNA was extracted from cells using RNeasy Plus Mini Kit (Qiagen). Library preparation with NEBNext Ultra II with PolyA selection, sequencing with NovaSeq and data analysis was performed by Admera Health, New Jersey. The De-Seq2 (version 1.14.1) was used to do the differential analysis. Gene expression levels were quantified as Fragments Per Kilobase Million (FPKM). Gene expression with FPKM value ≥ 0.5 were selected and Log2-transformed for the Differential Gene Expression (DEGs) analysis using iDEP (http://bioinformatics.sdstate.edu/idep/). DEGs were defined by p < 0.05 within each indicated paired-comparison and then used for Gene Ontology Analysis and heatmap generation. The Gene Ontology Analysis was done using Enrichr. The heatmap was created using R package gplots (version 3.1.1), function heatmap.2.

Assay [4] has as its system THP1-STING-WT cells. Briefly: RNA-seq differentially expressed genes. The format is cell-based, human. The settings on record: 1 µM, 4 h. The method, then: as §1, §2
Assay [5] deals with THP1-IFNAR2-WT and THP1-IFNAR2-KO cells. Briefly: Cell TiterGlo cell viability, IFNAR2 WT versus KO. The format is cell-based, human. The following applies: THP1-IFNAR2-WT vs -KO. As to the method: as §1
Type I interferons have been known to drive apoptosis in AML cells. Therefore, the apoptotic effects might be caused by type I interferons generated by STING activation. To address this question, we examined the IFNβ production with ELISA in MV4-11 and MOLM-16 cells stimulated with SHR1032. […] The activity of type I IFNs is mediated by the IFN-α receptor (IFNAR), which consists of two chains: IFNAR1 and IFNAR2. Knockout of the IFNAR2 gene abolishes the cellular response to type I IFNs.
THP1 reporter cells were treated for 24 h with a total of 100 k cells and 150 ul media in each well a 96-well plate. […] Luminescence signal was measured using Tecan infinite M1000. EC50 values were calculated using non-linear regression analysis of GraphPad Prism. Cell growth was monitored by CellTiter-Glo Luminescent Cell Viability Assay (Promega) per manufacture’s protocol. GI50 values were calculated using non-linear regression analysis of GraphPad Prism. […]

T1 sequence (Q86WV6 155-341 limits assumed): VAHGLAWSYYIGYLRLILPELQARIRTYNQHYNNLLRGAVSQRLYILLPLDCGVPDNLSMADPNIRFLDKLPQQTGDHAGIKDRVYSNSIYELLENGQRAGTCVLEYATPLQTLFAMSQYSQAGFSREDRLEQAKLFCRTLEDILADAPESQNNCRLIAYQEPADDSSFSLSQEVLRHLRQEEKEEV

As to `CCn1nc(C)cc1C(=O)Nc1nc2cc(C(N)=O)cc(OC)c2n1CCC[C@H]1COc2cc(C(N)=O)cc3nc(NC(=O)c4cc(C)nn4CC)n1c23` [SHR1032], the “Thermal shift ∆Tm” value in assay [1] was determined as 10.7 °C. Besides, the “potency in IRF luciferase reporter” value in assay [2] is recorded as “much better potency”. Moreover, the “Genes differentially expressed: Down-expressed” value in assay [3] stood at 216; in assay [4], 73. Also, the “Genes differentially expressed: Up-expressed” value is on record as 324 in assay [3] and 224 in assay [4]. Besides, in assay [5], the “effect of IFNA receptor deletion on induced cell death” value was “no effect on cell death induced by SHR1032”.
